Consider one compound from patent US10525139B2, “Folate-conjugated molecules for delivery of toxic small molecule inhibitors to cancer cells and methods of use” (priority 2014, dated 2020).

The structures appear in SMILES notation. “Also recorded” adds a separate entry of the source.

The test system of one data set is PDX T-ALL cells. In words: JQ-FT treatment of patient-derived xenograft (PDX) T-ALL cells in vitro. Format: cell-based, human. As to the method:
Errors bars denote mean±SD of 4 replicates. […] The blot was stained with an antibody against the C-terminus of NOTCH1 that recognizes both the furin-processed NOTCH1 transmembrane subunit (TM) and the unprocessed NOTCH1 precursor (FL). The immunoblot was also stained with anti-ICN1 antibody. GAPDH was used as a loading control. […] Error bars indicate the mean±SD of 4 replicates. Data were analyzed using the ΔΔCT method and plotted as a percentage relative to the control gene RPL13A. Statistical significance among groups for treated vs. vehicle (DMSO) samples (***P≤0.0001) was determined by one-way ANOVA with Bonferroni's correction for multiple comparison testing. […] The blot was stained with an antibody against the C-terminus of NOTCH1 (N1) that recognizes both the furin-processed NOTCH1 transmembrane subunit (TM). GAPDH was used as a loading control. […] Cells were probed with an anti-NOTCH1 antibody (green) and nuclei were counterstained with DAPI. […] Error bars indicate the mean±SD of 4 replicates. Data were analyzed using the ΔΔCT method and plotted as a percentage relative to the control gene RPL13A. Statistical significance (***P≤0.001. ****P≤0.0001) for treated vs. vehicle (DMSO) was determined by one-way ANOVA with Bonferroni's correction for multiple comparison testing.
To assess the translational significance of these findings, we studied patient-derived xenografts (PDX) from T-ALL patients at the Dana-Farber Cancer Institute.
Background: A xenograft is tissue or cells of one species grown in another, often human tumour cells in immunodeficient mice.

A further data set relates to NOTCH1 target genes. In words: NOTCH1 target gene expression by RT-PCR in T-ALL cell lines. The format is cell-based, human. The conditions noted are these: T-ALL cells (ALL/SIL, DND41), 24 hours. As to the method: Errors bars denote mean±SD of 4 replicates. […] The blot was stained with an antibody against the C-terminus of NOTCH1 that recognizes both the furin-processed NOTCH1 transmembrane subunit (TM) and the unprocessed NOTCH1 precursor (FL). The immunoblot was also stained with anti-ICN1 antibody. GAPDH was used as a loading control. […] Error bars indicate the mean±SD of 4 replicates. Data were analyzed using the ΔΔCT method and plotted as a percentage relative to the control gene RPL13A. Statistical significance among groups for treated vs. vehicle (DMSO) samples (***P≤0.0001) was determined by one-way ANOVA with Bonferroni's correction for multiple comparison testing. […] The blot was stained with an antibody against the C-terminus of NOTCH1 (N1) that recognizes both the furin-processed NOTCH1 transmembrane subunit (TM). GAPDH was used as a loading control. […] Cells were probed with an anti-NOTCH1 antibody (green) and nuclei were counterstained with DAPI. […] Error bars indicate the mean±SD of 4 replicates. Data were analyzed using the ΔΔCT method and plotted as a percentage relative to the control gene RPL13A. Statistical significance (***P≤0.001. ****P≤0.0001) for treated vs. vehicle (DMSO) was determined by one-way ANOVA with Bonferroni's correction for multiple comparison testing. […]

For the next data set, the system named is T-ALL cell lines. Nature of the data set: T-ALL cell viability / growth (ATP content, Cell-Titer Glo). Format: cell-based, human. Conditions: for cell growth / proliferation: T-ALL cell lines, 10 μM. How it is done:
Thus, cell lines carrying NOTCH1 alleles with HD domain, mutations were more sensitive to Thap-OH than cells with WT NOTCH1 alleles.
As a further test of the idea that JQ-FT acts by preventing NOTCH1 activation in a manner similar to thapsigargin, the NOTCH1-dependent T-ALL cell lines RPMI-8402 were transduced with empty MigRI vector or with ICN1, which lies downstream of the γ-secretase cleavage step in Notch activation. Viral supernatant production and retroviral infections were performed as described for MigRI retroviral vectors (Aster, J. C., et al. “Essential roles for ankyrin repeat and transactivation domains in induction of T-cell leukemia by NOTCH1.” Mol. Cell. Biol. 2000; 20:7505-7515). Transduction efficiency for MigRI was monitored by assessing GFP expression with a FACScan flow cytometer (BD, Franklin Lakes, N.J., USA) (Aster et al., Mol. Cell. Biol. 2000; 20:7505-7515). After viral infection, GFP-positive cells were sorted by flow cytometry with a FACSAria II (BD, Franklin Lakes, N.J., USA). […] Therefore, JQ-FT can recapitulate the Thapsigargin effect with the delivery mechanism of folate.
The NOTCH loss was measured via flow cytometry. […] The recapitulation of the thapsigargin effect by JQ-FT is hypothesized to be due to the delivery strategy introduced by folate. […] Here cell growth was assessed using the Promega Cell-Titer Glo ATP-based assay (Promega, Madison, Wis., USA). Luminescence was measured using a Fluostar Omega instrument (BMG-labtech, Ortenberg, Germany).
The effects of JQ-FT in a panel of T-ALL cell lines that contain activating mutations in the HD domain of NOTCH1 and/or protein stabilizing deletions within the PEST degradation domain.

Data set [1] is described as follows: LCMS analysis of cell lysate and media. The format is in vitro ADME. The conditions noted are these: 24 h treatment with FT. How it is done:
In order to validate the delivery of the Thap-OH, LCMS analysis of the cell lysate and the media was used to detect the presence of both Folate-Thap (FT) and Thap-OH. […] To directly visualize the folate delivery of a small molecule, folic acid derivatives with appended fluorophores were designed. Both Folate-FITC, suitable for flow cytometry studies, and Folate-TMARA, suitable for high-throughput fluorescence plate readers, were evaluated in vitro to determine the delivery mechanism.

Setting [2] is: NOTCH1-mutated PDX cells, 24 hours.

In the case of `C/C=C(/C)C(=O)O[C@H]1C(C)=C2C([C@@H]1OC(=O)CCCCCCC)[C@@](C)(OC(C)=O)C[C@H](OC(=O)CC[C@H](NC(=O)c1ccc(NCc3cnc4nc(N)[nH]c(=O)c4n3)cc1)C(=O)O)[C@@]1(O)[C@H]2OC(=O)[C@@]1(C)O` (stereo partly shown) [JQ-FT], in the data set with PDX T-ALL cells (setting [2]), the “ICN1 in NOTCH1-mutated PDX cells” value is reported as “depletion of detectable ICN1” and the “transmembrane NOTCH1 in NOTCH1-mutated PDX cells” value was “loss of transmembrane NOTCH1”. Besides, in the data set with PDX T-ALL cells (NOTCH1 mutant samples, 24 hours), the “expression of NOTCH1 target genes DTX and MYC in NOTCH1 mutant PDX samples” value is “decreased”. In addition, the “NOTCH1 processing in WT NOTCH1 PDX cells” value in the data set on PDX T-ALL cells (PDX T-ALL cells possessing WT NOTCH1) was “no effect was observed”. The “NOTCH1 target gene transcription in WT PDX samples” value in the data set with PDX T-ALL cells (WT PDX samples, 24 hours) was “no transcriptional changes were observed”. Moreover, in the data set on NOTCH1 target genes, the “NOTCH1 target gene expression” value is recorded as “suppression of NOTCH1 target genes”. Besides, in the data set on T-ALL cell lines (RPMI 8402 transduced with MigR1-ICN1 vs empty vector), the “rescue of loss of viability by exogenous ICN1” value is on record as “overexpressing an exogenous ICN1 partially rescues the observed phenotype; also recorded: attenuated the growth inhibitory effects of JQ-FT”. The “cell growth / proliferation” value in the data set with T-ALL cell lines is “impaired cell growth”. Moreover, in the data set with T-ALL cell lines (listed as Folate-Thap), the “cell growth / proliferation” value is “antiproliferation effect; also recorded: arrest of cell proliferation”. Besides, the “detection of the conjugate in cell culture media and cell lysate” value in data set [1] is reported as “not detected in either cell culture media (24 h treatment) or cell lysate”.
